These results are taken from publication PMC12157126, “Saturation kinetics and specificity of transporters for L-arginine and asymmetric dimethylarginine (ADMA) at the blood-brain and blood-CSF barriers” (PLOS One, 2025).

Values joined by “and” are separate entries in the source; they are usually repeats but may differ in a detail not shown here. Equal values may be shown once. Read-outs that look alike come from different tables or passages of the source. Where only a bound is given, the exact number is not on record here.

The subject of series [1] is blood-brain and blood-CSF barriers. Description: In situ brain/choroid plexus perfusion with capillary depletion: CNS uptake of [3H]-ADMA in absence and presence of transporter inhibitors. As to conditions: for RBrain, [3H]-ADMA alone: 10 min perfusion, mean±SEM; for RBrain, [3H]-ADMA alone / uptake of [3H]-ADMA: [14C]-sucrose corrected; for uptake of [3H]-ADMA: S14 Fig; for % inhibition of [3H]-ADMA uptake: L-homoarginine 20 mM, BCH 4 mM, α-methyl-D,L-tryptophan 500 μM, L-phenylalanine 200 μM, L-leucine 5 mM, harmaline 2 mM. As to the method:
(§1) The in situ brain/choroid plexus perfusion method was performed as previously described and will only be briefly detailed here. […] At the end of the perfusion period a CSF sample was taken from the cisterna magna, the animal was decapitated, the brain removed and samples taken under a Leica S4E L2 stereomicroscope (Leica; Buckinghamshire, UK). […] The circumventricular organs (CVOs) including the choroid plexus, pituitary gland and pineal gland were also sampled. Brain samples were also taken for capillary depletion analysis.
(§2) Both the physiological capillary depletion buffer and dextran solution were maintained at 4 °C to halt any cell metabolism and transport processes, and to reduce any cellular or protein damage due to heat generated from the homogenisation process. The whole brain homogenate was then taken for dextran density centrifugation (5,400 x g) and 4 °C to produce an endothelial cell-enriched pellet and supernatant containing brain parenchyma.
(§3) The transporter proteins these inhibitors target are listed in S1 Table in S1 File.
(§4) % change=RTissue−RInhibition /RTissue× 100 (2)

Series [2] shares this test system. Description: Self-inhibition experiments: [3H]-ADMA uptake with 0.5-500 μM unlabelled ADMA and kinetic constants (Km, Vmax, Kd). It counts as in vivo, adult male BALB/c mice. As to conditions: for Km: read-out: Km (half-saturation constant) of [3H]-ADMA influx.
Description: At the end of the perfusion period a CSF sample was taken from the cisterna magna, the animal was decapitated, the brain removed and samples taken under a Leica S4E L2 stereomicroscope (Leica; Buckinghamshire, UK). The samples included the frontal cortex, caudate nucleus, occipital cortex, hippocampus, hypothalamus, thalamus, pons and cerebellum. The circumventricular organs (CVOs) including the choroid plexus, pituitary gland and pineal gland were also sampled. Brain samples were also taken for capillary depletion analysis.
A series of single-time point experiments involved varying the unlabelled concentration of ADMA in the artificial plasma and measuring the [^3H]-ADMA uptake into the brain regions, capillary depletion samples, CVOs and CSF after 10 min of perfusion. […] This enabled calculation of the kinetic constants; Vmax (the maximal influx rate of the saturable component), Km (the half-saturation constant) and Kd (the constant of non-saturable diffusion).
In the case where the uptake of the radiolabelled test amino acid is examined in the presence of various unlabelled concentrations of the same test solute, Kin, can be defined as in equation 4:
Kin= Vmax/Km+ Cpl+ Kd (5)
Unidirectional ADMA flux (Jin) into the brain (nmol.min^-1.g^-1) and CSF (nmol.min^-1.ml^-1) was determined using equations 6 and 7:
Jin=VmaxCpl/Km+ Cpl+ KdCpl (8)
This constant of non-saturable diffusion was then used to calculate a non-saturable flux which could be subtracted from the total flux to determine the saturable flux. […] In some cases, there was no measurable non-saturable component and so estimates of Vmax and Km were obtained from plots of total flux, which was equal to the saturable flux.
For series [3] the test system is unchanged. Kind of series: In situ brain/choroid plexus perfusion with capillary depletion: CNS uptake of [3H]-arginine in absence and presence of transporter inhibitors. It counts as in vivo, adult male BALB/c mice. The settings on record: 4 mM BCH or 500 μM α-methyl-D,L-tryptophan. On the procedure: as §1, §2, §3, §4
The mark [4] stands for this setting: brain homogenate or supernatant.

Turning to `CN(C)C(N)=NCCC[C@H](N)C(=O)O` [[^3H]-ADMA, asymmetric dimethylarginine], the “uptake into pellet, times lower than into choroid plexus” value in series [1] (10 minutes) was determined as 124.2 times. Further, the “RBrain, [3H]-ADMA alone” value is 26.72±8.84 ml.100g^-1 in series [1] (CSF); 24.07±2.92 ml.100g^-1 in series [1] (caudate nucleus); 17.65±1.52 (n=4) ml.100g^-1 in series [1] (cerebellum); 260.9±42.45 ml.100g^-1 in series [1] (choroid plexus); 24.94±3.50 ml.100g^-1 in series [1] (frontal cortex); 21.74±1.75 ml.100g^-1 in series [1] (hippocampus). The “RBrain, [3H]-ADMA alone” value in series [1] (homogenate (capillary depletion)) was 17.70±3.10 (n=4) ml.100g^-1; in series [1] (hypothalamus) it was 30.42 ± 2.98 ml.100g^-1; in series [1] (occipital cortex), 22.52±1.65 ml.100g^-1; in series [1] (pellet (capillary depletion)), 2.62±0.88 (n=4) ml.100g^-1; in series [1] (pineal gland), 194.1±48.46 ml.100g^-1; in series [1] (pituitary gland), 182.9±32.28 ml.100g^-1. The “RBrain, [3H]-ADMA alone” value in series [1] (pons) was 24.64±3.44 ml.100g^-1; in series [1] (supernatant (capillary depletion)), 10.03 ± 1.06 (n=4) ml.100g^-1; in series [1] (thalamus), 21.09±1.74 ml.100g^-1. Moreover, the “uptake of [3H]-ADMA” value in series [1] (choroid plexus, 10 minutes) is 260.85 ± 42.45 ml.100g^-1; in series [1] (frontal cortex, 10 minutes), 24.94 ± 3.50 ml.100g^-1. In series [2] (CSF), the “non-saturable component of [3H]-ADMA flux” value is given as “no non-saturable component”. Also, the “Vmax (maximal influx rate of the saturable component) of [3H]-ADMA” value in series [2] (CSF, from total flux) is 2.07 ± 0.38 nmol/min/g and 2.067 ± 0.38 nmol/min/g; in series [2] (caudate nucleus), 0.423 ± 0.061 nmol/min/g; in series [2] (cerebellum) it was 0.235 ± 0.011 nmol/min/g; in series [2] (frontal cortex), 0.307 ± 0.017 nmol/min/g; in series [2] (hippocampus) it was 0.24 ± 0.02 nmol/min/g; in series [2] (homogenate), 0.155 ± 0.013 nmol/min/g. Moreover, the “Vmax (maximal influx rate of the saturable component) of [3H]-ADMA” value came out at 0.482 ± 0.049 nmol/min/g in series [2] (hypothalamus); 0.321 ± 0.034 nmol/min/g in series [2] (occipital cortex); 0.071 ± 0.008 nmol/min/g in series [2] (pellet); 0.325 ± 0.043 nmol/min/g in series [2] (pons); 0.208 ± 0.036 nmol/min/g in series [2] (supernatant); 0.278 ± 0.033 nmol/min/g in series [2] (thalamus). For the same compound, the Km in series [2] (CSF, from total flux) stood at 30.6 ± 25.4 µM; in series [2] (caudate nucleus, saturable flux, sucrose space increased at 500 µM ADMA) it was 25.2 ± 16.6 µM; in series [2] (cerebellum, saturable flux, sucrose space increased at 500 µM ADMA) it was 24.7 ± 5.32 µM; in series [2] (frontal cortex, saturable flux), 29.1 ± 7.19 µM; in series [2] (hippocampus, saturable flux, sucrose space increased at 500 µM ADMA), 15.8 ± 6.86 µM; in series [2] (homogenate, saturable flux) it was 13.6 ± 5.26 µM. The Km in series [2] (hypothalamus, saturable flux) was determined as 23.2 ± 10.8 µM; in series [2] (occipital cortex, saturable flux, sucrose space increased at 500 µM ADMA), 25.9 ± 12.6 µM; in series [2] (pellet, saturable flux), 34 ± 16.8 µM; in series [2] (pons, saturable flux, sucrose space increased at 500 µM ADMA), 18.2 ± 10.8 µM; in series [2] (supernatant, saturable flux), 68.5 ± 44.4 µM; in series [2] (thalamus, saturable flux, sucrose space increased at 500 µM ADMA), 18.5 ± 9.89 µM. Further, the “Kd (constant of non-saturable diffusion) of [3H]-ADMA” value came to 2.82 µL/min/g in series [2] (caudate nucleus); 5.20 µL/min/g in series [2] (cerebellum); 4.40 µL/min/g in series [2] (frontal cortex, slope of total flux at 100 and 500 μM); 3.23 µL/min/g in series [2] (hippocampus); 3.34 µL/min/g in series [2] (homogenate); 5.18 µL/min/g in series [2] (hypothalamus). For the same compound, the “Kd (constant of non-saturable diffusion) of [3H]-ADMA” value turned out to be 4.65 µL/min/g in series [2] (occipital cortex); 0.38 µL/min/g in series [2] (pellet); 3.62 µL/min/g in series [2] (pons); 2.35 µL/min/g in series [2] (supernatant); 4.33 µL/min/g in series [2] (thalamus). Besides, the RTissue in series [2] (choroid plexuses, pituitary gland and pineal gland, 10 minutes) is reported as above 100%.

Take `CC(N)(Cc1c[nH]c2ccccc12)C(=O)O` (racemic) [α-methyl-D,L-tryptophan, reference compound]: the “effect on [3H]-arginine distribution” value is “no statistically significant effect” in series [3] (CSF, choroid plexus and pituitary gland); “no significant effect” in series [3] (homogenate, supernatant, pellet). The “effect on [3H]-arginine uptake” value in series [3] (majority of brain regions sampled) was “did not significantly affect”. The “inhibition of [3H]-ADMA uptake” value in series [1] (brain and choroid plexus (up to), system B0,+ inhibitors) was “up to 50.0%”. For the same compound, in series [1] (setting [4]), the “effect on [3H]-ADMA uptake” value is reported as “did not significantly affect”. Moreover, the “% inhibition of [3H]-ADMA uptake” value was 49.1% in series [1] (caudate nucleus), 48.0% in series [1] (frontal cortex), 45.5% in series [1] (occipital cortex) and 80.6% in series [1] (pineal gland).

In the case of `COc1ccc2c3c([nH]c2c1)C(C)=NCC3` [Harmaline, harmaline, reference compound], the “effect on [3H]-ADMA uptake” value in series [1] (brain and choroid plexus) is reported as “significantly inhibited”; in series [1] (setting [4]), “did not significantly affect”.

For `N[C@@H](Cc1ccccc1)C(=O)O` [L-phenylalanine, reference compound], the “inhibition of [3H]-ADMA uptake” value in series [1] (phenylalanine, some regions of the brain and the choroid plexus (up to)) was “up to 66.4%”.
